# Measured values as given in patent publication US20060148730A1, “Method of treating tuberculosis” (priority 2003, published 2006).
# “Also recorded” adds a separate entry of the source.
# Tests used:
# VERO cells [1] = system: VERO cells
# VERO cells [2] = assay: Cytotoxicity against VERO cells (MTS, 72 hours)
# M. tuberculosis H37Rv = assay: MIC vs. M. tuberculosis H37Rv, microplate Alamar Blue assay (MABA); assay type: cell-based; details: result in words
structure (smiles),measurement,setting,value
CCCCCCCCCCN1CCCC(O/N=C2\[C@H](C)C[C@@](C)(OC)[C@H](O[C@@H]3O[C@H](C)C[C@H](N(C)C)[C@H]3O)[C@@H](C)C(=O)[C@@H](C)C(=O)O[C@H](CC)[C@@](C)(O)[C@H](O)[C@H]2C)C1 (stereo partly drawn) [RU60887],in vitro toxicity / cytotoxicity in words,VERO cells [1],comparable to clarithromycin
same,"selectivity index (SI), VERO cells",VERO cells [2],221
same,anti-TB activity / MIC in words,M. tuberculosis H37Rv,most potent of the tested 9-oxime compounds; also recorded: very low
